In patent US8563596B2, “Enantiomerically pure compounds for the treatment of proliferative disorders” (Piramal Enterprises Limited, priority 2006, dated 2013) one finds melting point and IC50 data, which are given here for six compounds.

The subject of data set [1] is HT-29 (Colon). The data set can be described thus: In vitro cell proliferation, 3H-Thymidine uptake assay. The format is cell-based, human. Particulars: cells harvested after 72 hours. As to the method:
(§1) Exponentially growing cultures of […] human cancerous cell lines (Calu1 lung, A-549 lung, HT-29 colon, HL-60 Promyelocytic Leukemia, PC-3 Prostate, H-460 Lung, MDA-MB-231 Breast, MCF-7 Breast, HeLa Cervix, Colo-205 Colon, H9 Lymphoma (T Cells), U-937 Histiocytic Lymphoma (monocytes) and CaCO-2 Colon) obtained from NCCS, Pune, India were used. The in vitro cell proliferation (NCl, USA protocol) and cytotoxicity assays were carried out using standard procedures viz. ^3H-Thymidine uptake and MTS assay, respectively (For ^3H-Thymidine uptake: Cell Biology, A Laboratory Handbook, 1998, Vol 1 Ed Julio E. Celis, and For MTS assay: Promega Protocol, USA, 2000). In the ^3H-Thymidine uptake assay, cells were harvested after 72 hours onto GF/B unifilter plates (Packard, USA) using a Packard Filtermate Universal harvester and the plates were counted on a Packard TopCount 96-well liquid scintillation counter. The concentration of compound at which 50% of proliferative activity was inhibited (IC50) and the degree of toxicity of compound were calculated for representative compounds and their pharmaceutically acceptable salts described in the Examples.

Data set [2] has as its target T1, CDK2-cyclin E (Homo sapiens, UniProt P24941).
T1 construct: made in house; host or cells: Sf9 insect cells (baculovirus)
Description: CDK2/Cyclin E kinase assay (32P phosphorylation of GST-Rb, filter plate). Type of data set: biochemical. Particulars: 30 min at 30° C.; GST-Rb substrate. The text has this:
(§2) CDK4/Cyclin D1 Kinase Assay and CDK2/Cyclin E Kinase Assay
(§3) The assays measure phosphorylation of retinoblastoma protein (Rb) by CDK4 or CDK2 upon activation by cyclin D1 or cyclin E, respectively, through the transfer of (γ^32P)-phosphate from γ^32P-ATP in a 96-well filter plate assay.
(§4) CDK4 or CDK2 was co-expressed with cyclin D1 or cyclin E, respectively, by a baculovirus expression system in insect cells. For this, 1×10^7 Sf9 cells were coinfected with baculoviruses containing human CDK-4 or 2 and cyclin D1 or E genes and after 72 hours cells were lysed in 500 μl of a lysis buffer (50 mM HEPES (pH 7.5), 10 mM MgCl2, 1 mM DTT, 5 μg/ml of aprotinin, 5 μg/ml of leupeptin, 0.1 mM NaF, 0.2 mM phenylmethylsulfonyl fluoride (PMSF), and sodium orthovanadate. Centrifuged lysate was purified on a GST-sepharose column. Purity of the proteins was checked by SDS-PAGE followed by western blots using specific antibodies (Santacruz Biotec, USA) to CDK4 or CDK2.
(§5) GST-retinoblastoma (Rb) (aa 776-928) fusion protein is expressed in the bacteria E. coli and purified by GSH-Sepharose affinity chromatography. The GST-Rb bound to these beads served as the substrate in the assay.
(§6) Quantitation was by scintillation detection of (^32P)-GST-Rb in 96-well filter plates using Top Count scintillation 96-well counter (Packard, USA).
The CDK4 or CDK2 enzyme assay was run in 96-well format using Millipore ultiscreen filtration plates. All assay steps took place in a single filter plate (Unifilter plates, Packard, USA). The filtration wells were pre-wet with kinase buffer (100 μl/well) and the solution was then removed by the application of vacuum, with the filter plate on a vacuum manifold and the vacuum on. 50 μl of GST-Rb bound to GSH-Sepharose beads in kinase buffer (0.5 μg GST-Rb/50 μl) was added to each well and vacuum was applied to remove the buffer. A further 25 μl of a reaction mix containing ATP (cold+hot) and phosphatase inhibitors diluted in kinase buffer were added to each well, followed by the addition of test compound (4× final concentration in kinase buffer) or kinase buffer (control) in an additional 25 μl volume. Finally 50 μl (100 ng) of human CDK-4/D1 or CDK-2/E enzyme in kinase buffer was added to each well to initiate the reaction. The reaction was incubated for 30 min at 30° C. After the reaction was complete, vacuum was applied and the plate was washed with the wash buffer (TNEN buffer) three times. The filter plate was air-dried and placed in a Multiscreen adapter plate. To each well, 30 μl Packard Microscint-O cocktail was added and the plate was covered with a Top-Seal A film. The plate was counted in a Packard Top Count Scintillation Counter for 10 min. […]

In data set [3] the target is T2, CDK4-cyclin D1 (Homo sapiens, UniProt P11802).
T2 construct: made in house; host or cells: Sf9 insect cells (baculovirus)
T2 sequence (P11802 whole entry): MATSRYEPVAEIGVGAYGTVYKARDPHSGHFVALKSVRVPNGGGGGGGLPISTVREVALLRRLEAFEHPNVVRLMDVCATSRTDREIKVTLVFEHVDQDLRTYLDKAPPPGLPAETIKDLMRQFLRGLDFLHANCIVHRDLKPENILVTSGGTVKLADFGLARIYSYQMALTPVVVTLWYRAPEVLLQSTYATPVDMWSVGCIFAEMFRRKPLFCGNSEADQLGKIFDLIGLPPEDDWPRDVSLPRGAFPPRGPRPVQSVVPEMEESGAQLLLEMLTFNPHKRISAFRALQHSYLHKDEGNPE
T2 sequence (P24385 whole entry partner): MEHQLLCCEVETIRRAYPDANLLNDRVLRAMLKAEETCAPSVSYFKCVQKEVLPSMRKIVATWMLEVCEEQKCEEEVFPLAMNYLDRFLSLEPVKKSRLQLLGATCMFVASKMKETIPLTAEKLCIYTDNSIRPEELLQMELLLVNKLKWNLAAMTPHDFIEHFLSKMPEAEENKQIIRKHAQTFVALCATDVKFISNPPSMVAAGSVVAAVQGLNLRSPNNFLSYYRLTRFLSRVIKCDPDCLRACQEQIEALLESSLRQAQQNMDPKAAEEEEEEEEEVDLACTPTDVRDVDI
Description: CDK4/Cyclin D1 kinase assay (32P phosphorylation of GST-Rb, filter plate). The format is biochemical. Particulars: 30 min at 30° C.; GST-Rb substrate.
From the text: as §2, §3, §4, §5, §6
The CDK4 or CDK2 enzyme assay was run in 96-well format using Millipore ultiscreen filtration plates. All assay steps took place in a single filter plate (Unifilter plates, Packard, USA). The filtration wells were pre-wet with kinase buffer (100 μl/well) and the solution was then removed by the application of vacuum, with the filter plate on a vacuum manifold and the vacuum on. 50 μl of GST-Rb bound to GSH-Sepharose beads in kinase buffer (0.5 μg GST-Rb/50 μl) was added to each well and vacuum was applied to remove the buffer. […] The plate was counted in a Packard Top Count Scintillation Counter for 10 min. […]

Data set [4] concerns A-549 (Lung). The data set can be described thus: In vitro cell proliferation, 3H-Thymidine uptake assay. Particulars: cells harvested after 72 hours. Type of data set: cell-based, human. As to the method: as §1
Data set [5] deals with Calu1 (Lung). Type of data set: cell-based, human. As for the experimental part:
as §1

Data set [6] deals with A-549 (Lung). Type of data set: cell-based, human. As for the experimental part: as §1
Data set [7] concerns HT-29 (Colon). The format is cell-based, human. As for the experimental part: as §1
Data set [8] has as its system Calu1 (Lung). Description: In vitro cell proliferation, 3H-Thymidine uptake assay. Type of data set: cell-based, human. Particulars: cells harvested after 72 hours. As for the experimental part:
as §1

Read-outs that look alike come from different tables or passages of the source. Where only a bound is given, the exact number is not on record here.

`COc1cc(OC)c2c(=O)cc(-c3ccccc3Cl)oc2c1[C@@H]1CCN(C)[C@H]1CO` showed a melting point of 91 to 93 °C.
With “(−)-trans-2-(2-Chloro-4-nitrophenyl)-5,7-dihydroxy-8-(2-hydroxymethyl-1-methylpyrrolidin-3-yl)-chromen-4-one hydrochloride [Example 97-(D)]”, the figures for the half-inhibitory concentration (IC50) in data set [1], in data set [2] and in data set [3] were 10 µM, greater than 10 µM and 1 µM, respectively.
Take “(−)-trans-2-(2-Chlorophenyl)-5,7-dihydroxy-8-(2-hydroxymethyl-1-methyl pyrrolidin-3-yl)-chromen-4-one hydrochloride [Example 96-(F)]”: the IC50 in data set [4] stood at 10 µM; in data set [1], 25 µM; in [5], 16.3 µM; in data set [6], 16 µM; in data set [7], 17.9 µM; in data set [2] it was 21 µM.
Turning to “(+)-trans-2-(2-Chlorophenyl)-5,7-dihydroxy-8-(2-hydroxymethyl-1-methyl-pyrrolidin-3-yl)-chromen-4-one hydrochloride [Example 10]”, the IC50 in data set [8] was less than 0.3 µM; in [4], 0.18 µM; in [1] it was 0.68 µM; in data set [5], 0.88 µM; in [6] it was 0.7 µM; in data set [7], 0.58 µM. Moreover, the 50% inhibitory concentration (IC50) worked out at 2.8 µM in [2] and 0.065 µM in [3].
For the compound “(+)-trans-2-(2-Chloro-4-nitrophenyl)-5,7-dihydroxy-8-(2-hydroxymethyl-1-methylpyrrolidin-3-yl)-chromen-4-one hydrochloride [Example 50]”, the half-maximal inhibitory concentration (IC50) in data set [8] was less than 0.3 µM; in data set [4], 1.2 µM; in data set [1], 1.5 µM; in [5], 1.4 µM; in [6], 1.2 µM; in data set [7] it was 1.1 µM. Moreover, the figures for the IC50 in [2] and in data set [3] were 1.7 µM and 0.045 µM, respectively.
Consider `CN1CC[C@@H](c2c(O)cc(O)c3c(=O)cc(-c4cc(F)ccc4Cl)oc23)[C@@H]1CO`, for which the melting point lay within 253 to 254 °C.

For orientation: melting point means the temperature, or range, at which the solid turns liquid. One may read the IC50 as the concentration needed to halve the response being measured. Read a low IC50 as greater potency.
